How the values were obtained:
Type in all cases: in vivo
[1] = system: Spodoptera littoralis (Egyptian Cotton Leaf Worm); experiment: Example B9: Spodoptera littoralis (Egyptian cotton leaf worm), cotton leaf discs sprayed, L1 larvae; details: foliar, 72 h, application rate 200 ppm, 3 days after infestation
Method in brief: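 Leaf discs on agar sprayed with aqueous dilutions from 10,000 ppm DMSO stock, dried, then infested with five L1 larvae. Mortality, anti-feeding and growth inhibition scored against untreated samples 3 days after infestation; control counted when any category exceeds untreated.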

[2] = system: Plutella xylostella (Diamond Back Moth); experiment: Example B5: Plutella xylostella (diamond back moth), artificial diet, 24-well, eggs; details: 192 h, application rate 200 ppm, 8 days after infestation, read-out: effect in at least one of the two categories (mortality or growth inhibition)
Method in brief: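 Artificial diet in 24-well plates treated with aqueous dilutions of 10,000 ppm DMSO stocks, dried, then infested with Plutella eggs. Mortality and growth inhibition scored against untreated samples 8 days after infestation; activity rated at 200 ppm application rate.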

[3] = system: Myzus persicae (Green Peach Aphid); experiment: Example B8: Myzus persicae (green peach aphid), intrinsic activity; details: 120 h, test rate 12 ppm, sucrose solution, 24-well, 5 days after infestation
Method in brief: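 Compounds diluted from 10,000 ppm DMSO stock were mixed with sucrose solution under stretched Parafilm in a sachet feeding setup, with aphid-infested pea seedlings placed on the membrane. Mortality was scored 5 days after infestation.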

[4] = system: Plutella xylostella (Diamondback Moth); experiment: Example B14: activity against Plutella xylostella (diamondback moth), 96-well artificial diet; details: 216 h, application rate 500 ppm, 9 days after infestation
Method in brief: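 Diet in 96-well plates was treated with aqueous dilutions of 10,000 ppm DMSO stocks, dried, and infested with 30 eggs per well via a netted lid; hatching L1 larvae fed on the diet. Mortality scored 9 days after infestation.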

[5] = system: Chilo suppressalis (Striped Rice Stemborer); experiment: Example B4: Chilo suppressalis (striped rice stemborer), artificial diet, L2 larvae; details: 144 h, application rate 200 ppm, 6 days after infestation
Method in brief: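 L2 larvae (6-8 per well) placed on artificial diet treated with aqueous test solutions prepared from 10,000 ppm DMSO stocks, after drying. Mortality, anti-feeding and growth inhibition scored against untreated samples 6 days after infestation; control means at least one category exceeds untreated.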

[6] = system: Thrips tabaci (Onion Thrips); experiment: Example B12: Thrips tabaci (onion thrips), feeding/contact activity; details: 144 h, application rate 200 ppm, mixed ages, 6 days after infestation
Method: Example B12: Thrips tabaci (Onion Thrips) Feeding/Contact Activity
Sunflower leaf discs were placed on agar in 24-well microtiter plates and sprayed with aqueous test solutions prepared from 10,000 ppm DMSO stock solutions. After drying the leaf discs were infested with a thrips population of mixed ages. The samples were assessed for mortality 6 days after infestation.

[7] = system: Spodoptera littoralis (Egyptian Cotton Leaf Worm); experiment: Example B10: Spodoptera littoralis (Egyptian cotton leaf worm), uptake by lettuce roots from agar, eggs; details: 144 h, test rate 12.5 ppm, lettuce root uptake, 6 days after infestation, read-out: effect in at least one of the three categories (mortality, anti-feeding, or growth inhibition)
Source text: Example B10: Spodoptera littoralis (Egyptian Cotton Leaf Worm)
Test compounds were applied by pipette from 10,000 ppm DMSO stock solutions into 24-well plates and mixed with agar. Lettuce seeds were placed onto the agar and the multi well plate was closed by another plate which contained also agar. After 7 days the compound was absorbed by the roots and the lettuce grew into the lid plate. The lettuce leaves were then cut off into the lid plate. Spodoptera eggs were pipetted through a plastic stencil onto a humid gel blotting paper and the lid plate was closed with it. The samples were assessed for mortality, anti-feedant effect and growth inhibition in comparison to untreated samples 6 days after infestation.
The following compounds gave an effect of at least 80% in at least one of the three categories (mortality, anti-feeding, or growth inhibition) at a test rate of 12.5 ppm: […]

[8] = system: Euschistus heros (Neotropical Brown Stink Bug); experiment: Example B2: Euschistus heros (neotropical brown stink bug), soybean leaves sprayed, N2 nymphs; details: 120 h, application rate 200 ppm, 5 days after infestation, read-out: effect in at least one of the two categories (mortality or growth inhibition)
Method in brief: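 Soybean leaves on agar sprayed with aqueous test solutions made from 10,000 ppm DMSO stocks, dried, then infested with N2 nymphs. Mortality and growth inhibition scored versus untreated samples 5 days after infestation; activity threshold at 200 ppm.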

[9] = system: Myzus persicae (Green Peach Aphid); experiment: Example B13: activity against Myzus persicae (green peach aphid), 96-well sucrose solution; details: 120 h, application rate 50 ppm, 5 days after infestation
Method in brief: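 Compounds, from 10,000 ppm DMSO stocks, mixed into sucrose solution in wells under stretched Parafilm, with aphids placed on the membrane in an inverted feeding setup. Mortality scored 5 days after infestation.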

[10] = system: Diabrotica Balteata (Corn Root Worm); experiment: Example B1: Diabrotica balteata (corn root worm), maize sprouts sprayed, L2 larvae; details: 96 h, application rate 200 ppm, 4 days after infestation, read-out: effect in at least one of the two categories (mortality or growth inhibition)
Method in brief: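 Maize sprouts on agar sprayed with aqueous dilutions of 10,000 ppm DMSO stocks, dried, then infested with 6–10 L2 larvae per well. Mortality and growth inhibition scored against untreated samples 4 days after infestation; rates of 200 ppm.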

[11] = system: Myzus persicae (Green Peach Aphid); experiment: Example B6: Myzus persicae (green peach aphid), feeding/contact activity; details: 144 h, application rate 200 ppm, 6 days after infestation
Method: Example B6: Myzus persicae (Green Peach Aphid):Feeding/Contact Activity
Sunflower leaf discs were placed onto agar in a 24-well microtiter plate and sprayed with aqueous test solutions prepared from 10,000 ppm DMSO stock solutions. After drying, the leaf discs were infested with an aphid population of mixed ages. The samples were assessed for mortality 6 days after infestation.

[12] = system: Myzus persicae (Green Peach Aphid); experiment: Example B7: Myzus persicae (green peach aphid), systemic activity; details: 144 h, test rate 24 ppm, pea seedling roots in test solution, 6 days
Method: Example B7: Myzus persicae (Green Peach Aphid), Systemic Activity
Roots of pea seedlings infested with an aphid population of mixed ages were placed directly into aqueous test solutions prepared from 10,000 DMSO stock solutions. The samples were assessed for mortality 6 days after placing seedlings into test solutions.

CC(NC(=O)c1cc(C2CC2C(F)(F)F)cc(C(F)(F)F)c1)c1ncnn1-c1ncccn1 (stereo not drawn) [P25, N-[1-(2-pyrimidin-2-yl-1,2,4-triazol-3-yl)ethyl]-3-(trifluoromethyl)-5-[2-(trifluoromethyl)cyclopropyl]benzamide]
≥ 80%: percent control (mortality, anti-feedant effect or growth inhibition) at 200 ppm [1] | percent effect (mortality or growth inhibition) at 200 ppm [2] | mortality at 12 ppm [3] | mortality at 500 ppm [4] | percent control (mortality, anti-feedant effect or growth inhibition) at 200 ppm [5] | mortality at 200 ppm [6] | percent effect (mortality, anti-feeding or growth inhibition) at 12.5 ppm [7] | percent effect (mortality or growth inhibition) at 200 ppm [8] | mortality at 50 ppm [9] | percent effect (mortality or growth inhibition) at 200 ppm [10]

CC(c1ncnn1-c1ncccn1)N(CC1CC1)C(=O)c1cc([S+]([O-])C(F)(F)F)cc(C(F)(F)F)c1 (stereo not drawn) [P26, N-(cyclopropylmethyl)-N-[1-(2-pyrimidin-2-yl-1,2,4-triazol-3-yl)ethyl]-3-(trifluoromethyl)-5-(trifluoromethylsulfinyl)benzamide]
≥ 80%: percent control (mortality, anti-feedant effect or growth inhibition) at 200 ppm [1] | percent effect (mortality or growth inhibition) at 200 ppm [2] | mortality at 12 ppm [3] | mortality at 500 ppm [4] | percent control (mortality, anti-feedant effect or growth inhibition) at 200 ppm [5] | mortality at 200 ppm [11] | mortality at 24 ppm [12] | mortality at 200 ppm [6] | percent effect (mortality, anti-feeding or growth inhibition) at 12.5 ppm [7] | percent effect (mortality or growth inhibition) at 200 ppm [8] | mortality at 50 ppm [9] | percent effect (mortality or growth inhibition) at 200 ppm [10]

CC(c1ncnn1-c1ncccn1)N(CC1CC1)C(=O)c1cc(C(F)(F)F)cc(C(C)(C)C#N)c1 (stereo not drawn) [P35, 3-(1-cyano-1-methyl-ethyl)-N-(cyclopropylmethyl)-N-[1-(2-pyrimidin-2-yl-1,2,4-triazol-3-yl)ethyl]-5-(trifluoromethyl)benzamide]
≥ 80%: percent control (mortality, anti-feedant effect or growth inhibition) at 200 ppm [1] | percent effect (mortality or growth inhibition) at 200 ppm [2] | mortality at 12 ppm [3] | mortality at 500 ppm [4] | mortality at 24 ppm [12] | mortality at 200 ppm [6] | percent effect (mortality or growth inhibition) at 200 ppm [8] | mortality at 50 ppm [9] | percent effect (mortality or growth inhibition) at 200 ppm [10]

CC(c1ncnn1-c1ncccn1)N(CC1CC1)C(=O)c1cc(C2CC2C(F)(F)F)cc(C(F)(F)F)c1 (stereo not drawn) [P42, N-(cyclopropylmethyl)-N-[1-(2-pyrimidin-2-yl-1,2,4-triazol-3-yl)ethyl]-3-(trifluoromethyl)-5-[2-(trifluoromethyl)cyclopropyl]benzamide]
≥ 80%: percent control (mortality, anti-feedant effect or growth inhibition) at 200 ppm [1] | percent effect (mortality or growth inhibition) at 200 ppm [2] | mortality at 12 ppm [3] | mortality at 500 ppm [4] | percent control (mortality, anti-feedant effect or growth inhibition) at 200 ppm [5] | mortality at 200 ppm [11] | mortality at 200 ppm [6] | percent effect (mortality, anti-feeding or growth inhibition) at 12.5 ppm [7] | percent effect (mortality or growth inhibition) at 200 ppm [8] | mortality at 50 ppm [9] | percent effect (mortality or growth inhibition) at 200 ppm [10]

CC(c1ncnn1-c1ncccn1)N(CC1CC1)C(=O)c1cc(C(F)(F)F)cc(C2(C#N)CC2)c1 (stereo not drawn) [P46, 3-(1-cyanocyclopropyl)-N-(cyclopropylmethyl)-N-[1-(2-pyrimidin-2-yl-1,2,4-triazol-3-yl)ethyl]-5-(trifluoromethyl)benzamide]
≥ 80%: percent control (mortality, anti-feedant effect or growth inhibition) at 200 ppm [1] | percent effect (mortality or growth inhibition) at 200 ppm [2] | mortality at 12 ppm [3] | mortality at 500 ppm [4] | mortality at 200 ppm [11] | mortality at 24 ppm [12] | mortality at 200 ppm [6] | percent effect (mortality or growth inhibition) at 200 ppm [8] | mortality at 50 ppm [9] | percent effect (mortality or growth inhibition) at 200 ppm [10]

CC(c1ncnn1-c1ncccn1)N(CC1CC1)C(=O)c1cc(C(F)(F)F)cc(C(F)(F)C2CC2)c1 (stereo not drawn) [P49, 3-[cyclopropyl(difluoro)methyl]-N-(cyclopropylmethyl)-N-[1-(2-pyrimidin-2-yl-1,2,4-triazol-3-yl)ethyl]-5-(trifluoromethyl)benzamide]
≥ 80%: percent control (mortality, anti-feedant effect or growth inhibition) at 200 ppm [1] | percent effect (mortality or growth inhibition) at 200 ppm [2] | mortality at 12 ppm [3] | mortality at 500 ppm [4] | percent control (mortality, anti-feedant effect or growth inhibition) at 200 ppm [5] | mortality at 200 ppm [6] | percent effect (mortality, anti-feeding or growth inhibition) at 12.5 ppm [7] | percent effect (mortality or growth inhibition) at 200 ppm [8] | mortality at 50 ppm [9] | percent effect (mortality or growth inhibition) at 200 ppm [10]

CC(c1ncnn1-c1ncccn1)N(CC1CC1)C(=O)c1cc(C2CC2(F)F)cc(C(F)(F)F)c1 (stereo not drawn) [P50, N-(cyclopropylmethyl)-3-(2,2-difluorocyclopropyl)-N-[1-(2-pyrimidin-2-yl-1,2,4-triazol-3-yl)ethyl]-5-(trifluoromethyl)benzamide]
≥ 80%: percent control (mortality, anti-feedant effect or growth inhibition) at 200 ppm [1] | percent effect (mortality or growth inhibition) at 200 ppm [2] | mortality at 12 ppm [3] | mortality at 500 ppm [4] | percent control (mortality, anti-feedant effect or growth inhibition) at 200 ppm [5] | mortality at 200 ppm [11] | mortality at 200 ppm [6] | percent effect (mortality, anti-feeding or growth inhibition) at 12.5 ppm [7] | mortality at 50 ppm [9] | percent effect (mortality or growth inhibition) at 200 ppm [10]

Cc1nc(C(C)NC(=O)c2cc(C(F)(F)F)cc(C(C)(C)C#N)c2)n(-c2ncccn2)n1 (stereo not drawn) [P82, 3-(1-cyano-1-methyl-ethyl)-N-[1-(5-methyl-2-pyrimidin-2-yl-1,2,4-triazol-3-yl)ethyl]-5-(trifluoromethyl)benzamide]
≥ 80%: percent control (mortality, anti-feedant effect or growth inhibition) at 200 ppm [1] | percent effect (mortality or growth inhibition) at 200 ppm [2] | mortality at 12 ppm [3] | percent control (mortality, anti-feedant effect or growth inhibition) at 200 ppm [5] | mortality at 200 ppm [11] | mortality at 24 ppm [12] | percent effect (mortality or growth inhibition) at 200 ppm [8] | percent effect (mortality or growth inhibition) at 200 ppm [10]

CC(NC(=O)c1cc(C(F)(F)F)cc(C(C)(C)C#N)c1)c1ncnn1-c1ncccn1 (stereo not drawn) [P84, 3-(1-cyano-1-methyl-ethyl)-N-[1-(2-pyrimidin-2-yl-1,2,4-triazol-3-yl)ethyl]-5-(trifluoromethyl)benzamide]
≥ 80%: percent control (mortality, anti-feedant effect or growth inhibition) at 200 ppm [1] | percent effect (mortality or growth inhibition) at 200 ppm [2] | mortality at 12 ppm [3] | percent control (mortality, anti-feedant effect or growth inhibition) at 200 ppm [5] | mortality at 24 ppm [12] | percent effect (mortality or growth inhibition) at 200 ppm [8] | percent effect (mortality or growth inhibition) at 200 ppm [10]

Source: US20210267203A1, “PESTICIDALLY ACTIVE AZOLE-AMIDE COMPOUNDS” (SYNGENTA PARTICIPATIONS AG, priority 2018, published 2021)
